Article PMC10359276, “Involvement of skin TRPV3 in temperature detection regulated by TMEM79 in mice” (Nature Communications, 2023)

Target: TRPV3 (mTRPV3) (Mus musculus, UniProt Q8K424)
Assay: cell-based

Chain of TRPV3 (mTRPV3) (Q8K424 whole entry): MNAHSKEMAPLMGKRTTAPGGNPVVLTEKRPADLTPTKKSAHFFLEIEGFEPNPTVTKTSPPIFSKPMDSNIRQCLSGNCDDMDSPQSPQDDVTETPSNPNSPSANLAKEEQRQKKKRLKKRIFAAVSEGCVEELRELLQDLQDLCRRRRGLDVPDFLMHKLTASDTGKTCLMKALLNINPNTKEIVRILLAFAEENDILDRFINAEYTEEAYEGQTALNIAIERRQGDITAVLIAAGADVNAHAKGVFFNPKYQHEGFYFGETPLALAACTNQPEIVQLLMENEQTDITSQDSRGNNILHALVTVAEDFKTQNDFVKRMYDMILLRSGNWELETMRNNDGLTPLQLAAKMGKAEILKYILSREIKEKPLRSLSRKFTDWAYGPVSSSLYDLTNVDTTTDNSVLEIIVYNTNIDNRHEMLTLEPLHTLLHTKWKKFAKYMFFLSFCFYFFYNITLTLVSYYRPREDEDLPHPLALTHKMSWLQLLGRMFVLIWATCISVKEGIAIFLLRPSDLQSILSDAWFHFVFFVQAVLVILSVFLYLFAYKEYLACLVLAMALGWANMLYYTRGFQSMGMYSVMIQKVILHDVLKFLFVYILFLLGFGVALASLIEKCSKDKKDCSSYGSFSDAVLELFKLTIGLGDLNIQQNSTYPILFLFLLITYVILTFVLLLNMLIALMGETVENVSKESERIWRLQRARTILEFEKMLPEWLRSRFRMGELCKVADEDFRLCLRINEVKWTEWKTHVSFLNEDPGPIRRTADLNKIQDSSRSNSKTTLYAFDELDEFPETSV

With `NCCOB(c1ccccc1)c1ccccc1` [2-APB] the EC50 was 57.4 ± 3.2 µM.
